Legend:
[1] = tested on: IDO1; assay: Endogenous IDO1 mRNA in SKOV3 cells (qPCR); type: cell-based; conditions: 6 or 24 hour, 1 μM or 2 μM, normalized to GAPDH
Description: Specifically, RNA was isolated, reverse transcribed, and the cDNA was used in a qPCR assay to determine the mRNA levels for IDO1. Data was normalized to GAPDH.

[2] = tested on: CD44; assay: CD44 protein expression in ovarian cancer xenograft model (SKOV-3); type: in vivo, mouse; conditions: SKOV-3 xenograft, 0, 1, 2, 4, 8, 16, or 24 hours after treatment
Method: At the end of treatment, tumors were harvested from euthanized mice. Part of the dissected tumors were fixed overnight in 3.7% or 10% neutral buffered formaldehyde at 4° C., and then paraffin embedded, cut to 4-5 micron sections, and affixed onto positively charged slides. After baking and deparaffinization, the slides with tumor or control tissues were incubated in a 10 mM sodium citrate solution pH=6.0 for antigen retrieval at 98° C. Afterwards, slides were probed with primary antibodies against P-STAT3 (Tyr705) (rabbit, Cell Signaling, 1:100), β-CATENIN (mouse, Santa Cruz, 1:400), IL-6 (mouse, Novus Biol., 1:100), PD-L1 (rabbit, Cell Signaling, 1:100), PCNA (mouse, Santa Cruz, 1:5000), CD8a (rabbit, Santa Cruz, 1:30), CD44 (rat, BioLegend, 1:50), CD44 (mouse, Cell Signaling, 1:100), CD133 (mouse, Miltenyi, 1:100), IDO1 (mouse, Millipore 1:100), or/and CD3 (rabbit, Abcam, 1:100) at 4° C. overnight, and then AlexaFluor fluorescent dye-conjugated secondary antibodies (Invitrogen, 1:300 or 1:500) at room temperature for one hour. After mounting in ProLong mounting medium containing DAPI (Invitrogen), the slides were examined on a Zeiss Axio Imager M2 upright fluorescence microscope with a 20× objective and analyzed with Zen software.

[3] = tested on: PD-L1; assay: PD-L1 staining of B16F10 melanoma cells in a murine xenograft model; conditions: in vivo
[4] = tested on: p-STAT3; assay: p-STAT3 staining of CT26 tumors after treatment; type: in vivo, mouse; conditions: vs control group
Description: (§1) All BALB/c mice (Taconic, Hudson, N.Y., USA) were housed in Association for Assessment and Accreditation of Laboratory Animal Care approved facilities in static microisolator cages. Murine MSS-status colon carcinoma CT26 cells (ATCC CRL-2639) and murine breast carcinoma cells 4T1 (ATCC CRL-2539) were purchased from American Type Culture Collection (ATCC, Manassas, Va., USA), and grown in RPMI-1640 medium (ATCC) supplemented with 10% heat-inactivated fetal calf serum. After harvesting during exponential growth, tumors were initiated by subcutaneously implanting 3×10^5 CT26 tumor cells into the right dorsal flank of each 8-12 week old female BALB/c mouse. […] Body weight and clinical signs were monitored throughout the course of the treatment in accordance with the Institutional Animal Care and Use Committee approved protocols. Drug efficacy was analyzed by measuring tumor volume in mm^3 calculated by multiplying 0.5×width^2×length. […]
At the end of treatment, tumors were harvested from euthanized mice. […] After mounting in ProLong mounting medium containing DAPI (Invitrogen), the slides were examined on a Zeiss Axio Imager M2 upright fluorescence microscope with a 20× objective and analyzed with Zen software.

[5] = tested on: IDO1; assay: IDO1 expression in colorectal cancer xenograft model (SW480); type: in vivo, mouse; conditions: SW480 xenograft, 0, 1, 2, 4, 8, and 24 hours
Method: FIG. 13A and FIG. 13B show an exemplary reduction in IDO1 expression at 0, 1, 2, 4, 8, and 24 hours after treatment of SW480 xenograft colorectal cancer cells (FIG. 13A) and SKOV3 xenograft ovarian cancer cells (FIG. 13B) with an exemplary cancer sternness inhibitor, e.g., BBI608, according to certain embodiments of the present disclosure.
(§2) At the end of treatment, tumors were harvested from euthanized mice. Part of the dissected tumors were fixed overnight in 3.7% or 10% neutral buffered formaldehyde at 4° C., and then paraffin embedded, cut to 4-5 micron sections, and affixed onto positively charged slides. After baking and deparaffinization, the slides with tumor or control tissues were incubated in a 10 mM sodium citrate solution pH=6.0 for antigen retrieval at 98° C. […] After mounting in ProLong mounting medium containing DAPI (Invitrogen), the slides were examined on a Zeiss Axio Imager M2 upright fluorescence microscope with a 20× objective and analyzed with Zen software.

[6] = tested on: β-CATENIN, NANOG, SMO, and SOX2; assay: Self-renewal gene expression in FaDu cancer stem cells; type: cell-based; parameters: dose or concentration left out as unconfirmed; conditions: 24 hours
[7] = tested on: CD8^+ T cells; assay: Tumor infiltrating CD8+ T cells in Apc^Min/+ mouse model of colon cancer (immunofluorescence); type: in vivo, Apc^Min/+ C57BL/6J mice; conditions: BBI608 200 mg/kg p.o. q.d. 4 days, vs control group
Method: as §2
All animals were housed in Association for Assessment and Accreditation of Laboratory Animal Care-approved facilities in static microisolator cages. […] Body weight and clinical signs were monitored throughout the course of the treatment. […]
CD8^+ levels were analyzed by immunofluorescence.

[8] = tested on: CD8^+ T cells producing IFN-γ; assay: Tumor antigen-specific T cell immune response (IFN-γ producing spleen CD8+ T cells); type: in vivo, Apc^Min/+ mice; conditions: in the presence of the tumor antigen, vs control samples
Description: All animals were housed in Association for Assessment and Accreditation of Laboratory Animal Care-approved facilities in static microisolator cages. Testing confirmed the mice were pathogen-free and there was no evidence of murine Helicobacter spp. by culture or PCR. Apc^Min/+ mice on a C57BL/6J background were originally obtained from the Jackson Laboratory (Bar Harbor, Me.) and bred in-house to wild-type (wt) C57BL/6J mice to generate Apc^Min/+. 17 week old Apc^Min/+ mice or matched wild-type controls were treated with either vehicle alone, or BBI608 at 200 mg/kg daily by oral gavage (p.o., q.d.) for 4 consecutive days (n=4/group). Body weight and clinical signs were monitored throughout the course of the treatment. On treatment day 4, the animals were sacrificed 4 hours after the last dose and the tumors in the Apc^Min/+ small intestine or a piece of normal intestine, from wild type controls, were harvested.
Spleen tissues were collected from the above APC^Min/+ mice at the time of tumor harvesting. CD8^+ T cells were separated using a CD8^+ T cells isolation kit according to the manufacturer's protocol (STEMCELL Technology). […] Intracellular IFN-γ was then stained with Alexa-647 labeled rat anti-mouse IFN-γ antibody (1:100, BD) and CD8^+ T cells producing IFN-γ were analyzed under the Zeiss fluorescence microscope described above.

[9] = tested on: CT26 colon tumor; assay: CT26 syngeneic murine colon carcinoma model, tumor volume; type: in vivo, BALB/c mouse; conditions: BBI608 100 mg/kg po qd
Description: as §1

**Q.** `CC(=O)c1cc2c(o1)C(=O)c1ccccc1C2=O` [BBI608, 2-acetylnaphtho[2,3-b]furan-4,9-dione] was tested. Which “endogenous IDO1 expression (mRNA)” value [1] did it give?
**A.** The value was “inhibited”.

**Q.** And the CD44 protein expression [2]?
**A.** Its CD44 protein expression is “inhibited CD44 protein expression in a time-dependent manner”.

**Q.** And the PD-L1 expression staining [3]?
**A.** The PD-L1 expression staining was “down-regulation”.

**Q.** What about the “p-STAT3 level in CT26 tumors” value [4] of the same compound?
**A.** Its value is “reduced p-STAT3 levels”.

**Q.** What about the IDO1 expression level [5] of the same compound?
**A.** The IDO1 expression level was “reduced IDO1 expression level in a time-dependent manner”.

**Q.** And the “expression of self-renewal genes β-CATENIN, NANOG, SMO, and SOX2” value [6]?
**A.** The value was “decreased expression”.

**Q.** What about the “number of tumor infiltrating CD8^+ T cells” value [7] of the same compound?
**A.** The value was “increased the number of tumor infiltrating CD8^+ T cells significantly”.

**Q.** And the “percentage of CD8^+ T cells producing INF-γ” value [8]?
**A.** Its value is “higher percentage”.

**Q.** And the tumor growth inhibition ([9]; by the end of treatment (11 days))?
**A.** The tumor growth inhibition was 76%.

**Q.** And the “anti-tumor activity (tumor volume course)” value ([9]; anti-PD-1 antibody 10 mg/kg iv q4d, 11 days)?
**A.** Its value is “lasting anti-tumor activity”.

Reference: patent publication US20180140572A1, “COMPOSITIONS COMPRISING A CANCER STEMNESS INHIBITOR AND AN IMMUNOTHERAPEUTIC AGENT FOR USE IN TREATING CANCER” (Boston Biomedical, Inc., priority 2015, published 2018)
